This experiment concerns lymphocytic leukemia P388 cells. Nature of the experiment: screening of cytostatic activity using lymphocytic leukemia P388 cells. Format: cell-based. An excerpt:
The screening of cytostatic activity was made using lymphocytic leukemia P388 cells.

≈ marks a conversion by molar mass, not a printed value.

Consider `CC[C@H](C)[C@@H]([C@@H](CC(=O)N1CCC[C@H]1[C@H](OC)[C@@H](C)C(=O)N[C@@H](Cc1ccccc1)c1nccs1)OC)N(C)C(=O)[C@@H](NC(=O)[C@H](C(C)C)N(C)C)C(C)C` [Dolastatin 10], for which the ED50 came to 0.7 ng/mL (≈ 0.892 nM).

Values taken from patent publication US6004934A, “Tetrapeptide derivative” (Teikoku Hormone Mfg. Co., Ltd., priority 1991, dated 1999).
